# Measured values taken from patent publication US5840910A, “Pyridine derivatives having anti-ulcerative activity” (Esai Co., Ltd., priority 1986, dated 1998).
# Entries after “also recorded” stand apart in the source; their conditions may differ. Where a name gives a salt, the structure may show the parent alone.
# What was measured:
# [1] = biological target: T1, H^+ -K^+ ATPase (Sus scrofa, UniProt P19156); assay: Inhibition against the activity of H^+ -K^+ ATPase; format: biochemical, pig; conditions: for IC50: 40 mM Tris-HCl pH 7.40, 37° C., 30 minutes incubation
# T1 construct: Prepared from the fundic-glands of a fresh mucous membrane of a pig stomach; from tissue; host or cells: pig stomach, fundic glands of fresh mucous membrane (modified method of Saccomani et al., 1977)
# Description: Prepared from the fundic-glands of a fresh mucous membrane of a pig stomach according to a modified method of Saccomani al. (see Biochem. and Biophys. Acta, 464; 313 (1977)). The compound of the present invention was incubated at various concentration in a 40 mM Tris-HCl buffer solution having a pH of 7.40 together with H^+ -K^+ ATPase and 10 μg/ml of a protein at 37° C. for 30 minutes, followed by the addition of 15 mM KCl. After 10 minutes, the ATPase reaction was initiated by the addition of 3 mM of MgCl2 and ATP. After 10 minutes, the amount of the released inorganic phosphoric acid was determined according to the method of Yoda and Hokin (see Biochem. Biophys. Res. Com., 40, 880 (1970)). The test compound was used as a solution in methanol. The inhibitory effect was determined by subtracting the amount of the released inorganic acid observed with respect to the case wherein a solution of a test compound was added from that with respect to the control wherein only a solvent was added to determine a difference and dividing this difference by the latter amount and shown by percentage.
# [2] = test system: pentagastrin-stimulated gastric acid secretion; assay: Pentagastrin-stimulated gastric acid secretion and its recovery in chronic gastric fistula dogs; format: in vivo, dog; conditions: for Time required for the acid secretion to recover: 4 mg per kg intraduodenal; for Gastric acid secretion, percent of the control response, 1 hr: 1 hr after 4 mg per kg intraduodenal; for Gastric acid secretion, percent of the control response, 24 hr: 24 hr after 4 mg per kg intraduodenal; for Gastric acid secretion, percent of the control response, 48 hr: 48 hr after 4 mg per kg intraduodenal; for Inhibition of pentagastrin-stimulated gastric acid secretion (in words): within one hour from intraduodenal administration, 4 mg per kg
# Description: Chronic gastric fistula dogs were used. The test compound was intraduodenally administered to each dog in an amount of 4 mg per kg. In 1, 24, 48 and 72 hours, respectively, from the time of administration, pentagastrin (6 micron grams per kg) was injected intramuscularly into the dog. Gastric acid secretion, determined and recovery thereof, was determined in terms of percent of the control response.
# [3] = test system: histamine-stimulated gastric acid secretion; assay: Inhibitory effect on histamine-stimulated gastric acid secretion of chronic gastric fistula dogs; format: in vivo, dog; conditions: for ED50: Canis lupus familiaris, 1 h, intraduodenal, histamine-stimulated, read-out: ID 50, calculated from the dose-inhibition curve
# Description: Chronic gastric fistula dogs were used. Gastric acid secretion of each dog was stimulated by infusing 100 micron grams per kg per hour of histamine. After one hour of histamine infusion, each of the test compounds was administered intraduodenally to each dog, and after one hour of administration, the amount of gastric acid secretion of each test dog was determined. Results wore compared with the control group to which no test compound had been administered and are expressed in terms of percent inhibition.
# [4] = Toxicological influence, oral, one week, beagle dogs; format: in vivo; conditions: 10 mg/kg per day for one week
# [5] = Toxicological influence, oral, one week, rats; format: in vivo; conditions: rats (printed rate), 50 mg/kg per day for one week
# T1 sequence (P19156 2-1034 limits assumed): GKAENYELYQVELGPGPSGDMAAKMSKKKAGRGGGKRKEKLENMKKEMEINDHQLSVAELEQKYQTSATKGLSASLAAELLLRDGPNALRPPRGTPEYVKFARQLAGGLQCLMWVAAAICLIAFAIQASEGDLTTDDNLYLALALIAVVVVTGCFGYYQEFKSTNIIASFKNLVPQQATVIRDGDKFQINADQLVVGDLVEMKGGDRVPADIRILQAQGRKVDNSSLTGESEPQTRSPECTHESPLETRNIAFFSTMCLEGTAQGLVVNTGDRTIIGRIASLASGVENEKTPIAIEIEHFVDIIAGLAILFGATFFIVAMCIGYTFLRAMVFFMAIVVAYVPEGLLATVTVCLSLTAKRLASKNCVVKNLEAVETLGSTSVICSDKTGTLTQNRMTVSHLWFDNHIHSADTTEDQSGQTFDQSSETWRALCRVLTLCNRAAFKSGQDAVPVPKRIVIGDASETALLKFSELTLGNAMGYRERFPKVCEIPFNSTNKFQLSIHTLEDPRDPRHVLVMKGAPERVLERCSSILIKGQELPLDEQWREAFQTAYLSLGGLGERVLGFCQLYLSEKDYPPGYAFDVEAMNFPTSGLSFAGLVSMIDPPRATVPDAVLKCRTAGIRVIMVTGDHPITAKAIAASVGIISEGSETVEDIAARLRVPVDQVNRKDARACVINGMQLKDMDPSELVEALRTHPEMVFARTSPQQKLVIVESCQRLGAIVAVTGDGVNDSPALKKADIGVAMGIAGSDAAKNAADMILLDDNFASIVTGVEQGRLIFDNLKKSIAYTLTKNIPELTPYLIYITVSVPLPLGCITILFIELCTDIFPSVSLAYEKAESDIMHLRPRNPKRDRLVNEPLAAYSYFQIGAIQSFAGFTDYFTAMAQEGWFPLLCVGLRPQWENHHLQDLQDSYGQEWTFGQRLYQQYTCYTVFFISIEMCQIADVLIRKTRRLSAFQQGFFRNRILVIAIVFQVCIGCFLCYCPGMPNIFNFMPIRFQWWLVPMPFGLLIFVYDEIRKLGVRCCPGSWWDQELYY
# T1 sequence (P18434 whole entry partner): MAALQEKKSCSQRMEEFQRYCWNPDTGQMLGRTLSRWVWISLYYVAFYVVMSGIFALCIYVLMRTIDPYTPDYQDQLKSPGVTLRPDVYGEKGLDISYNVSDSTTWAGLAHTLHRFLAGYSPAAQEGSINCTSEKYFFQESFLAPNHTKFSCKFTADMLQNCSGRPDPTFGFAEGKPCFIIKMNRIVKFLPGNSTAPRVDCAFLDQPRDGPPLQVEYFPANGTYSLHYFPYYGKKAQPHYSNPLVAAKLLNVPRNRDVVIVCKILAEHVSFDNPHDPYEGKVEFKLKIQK
compound,measurement,setting,value
Cc1c(OCCOCc2ccccc2)ccnc1C[S+]([O-])c1nc2cc(C(F)(F)F)ccc2[nH]1 (stereo not drawn) [Compound 3],IC50,[1],1000 nM
Cc1c(OCCN2C(=O)CCC2=O)ccnc1C[S+]([O-])c1nc2ccccc2[nH]1 (stereo not drawn) [Compound 4],IC50,[1],11000 nM
Cc1c(OCCN2C(=O)CCC2=O)ccnc1C[S+]([O-])c1nc2cc(C(F)(F)F)ccc2[nH]1 (stereo not drawn) [Compound 15],IC50,[1],72 nM
COCCOCCOc1ccnc(C[S+]([O-])c2nc3cc(OC)ccc3[nH]2)c1C (stereo not drawn) [Compound 7],IC50,[1],1700 nM
COCCOCCOc1ccnc(C[S+]([O-])c2nc3ccccc3[nH]2)c1C (stereo not drawn) [Compound 18],IC50,[1],3300 nM
Cc1c(OCCOCCCl)ccnc1C[S+]([O-])c1nc2ccccc2[nH]1 (stereo not drawn) [Compound 23],IC50,[1],1400 nM
Cc1c(OCCN2CCCC2=O)ccnc1C[S+]([O-])c1nc2cc(C(F)(F)F)ccc2[nH]1 (stereo not drawn) [Compound 16],IC50,[1],1700 nM
Cc1c(OCCCO)ccnc1C[S+]([O-])c1nc2ccccc2[nH]1 (stereo not drawn) [Compound 22],IC50,[1],1900 nM
Cc1c(OCCO)ccnc1C[S+]([O-])c1nc2ccccc2[nH]1 (stereo not drawn) [Compound 10],IC50,[1],1900 nM
Cc1c(OCCN2CCCC2=O)ccnc1C[S+]([O-])c1nc2ccccc2[nH]1 (stereo not drawn) [Compound 5],IC50,[1],2400 nM
"COCCCOc1ccnc(C[S+]([O-])c2nc3ccccc3[nH]2)c1C (stereo not drawn) [Compound 19, Sodium Salt of 2-[{4-(3-Methoxypropoxy)-3-Methylpyridine-2-Yl}Methylsulfinyl]-1H-Benzimidazole]",Inhibitory effect on the activity of H^+ -K^+ ATPase (in words),[1],significant inhibitory effect
same,IC50,[1],1700 nM
same,Time required for the acid secretion to recover,[2]; pentagastrin,48 h
same,"Gastric acid secretion, percent of the control response, 1 hr",[2]; pentagastrin,0%
same,"Gastric acid secretion, percent of the control response, 24 hr",[2]; pentagastrin,61.9%
same,"Gastric acid secretion, percent of the control response, 48 hr",[2]; pentagastrin,121.5%
same,Recovery of gastric acid secretion (in words),"[2]; dog, in vivo",excellent gastric acid secretion recovery
same,Inhibition of pentagastrin-stimulated gastric acid secretion (in words),[2],completely inhibited
same,% Inhibition of acid output,[3]; 31.25 μg/Kg intraduodenal,34.4%
same,% Inhibition of acid output,[3]; 62.5 μg/Kg intraduodenal,50.1%
same,% Inhibition of acid output,[3]; 125 μg/Kg intraduodenal,67.7%
same,% Inhibition of acid output,[3]; 250 μg/Kg intraduodenal,87.4%
same,% Inhibition of acid output,[3]; 500 μg/Kg intraduodenal,100.0%
same,ED50,[3],0.0599 mg/kg
same,"Potency compared with Omeprazole, inhibition of gastric acid secretion",[3]; versus Omeprazole,two times more potent; also recorded: more potent inhibitory activity on gastric acid secretion as compared with Omeprazole
same,Toxicological influence,[4],No toxicological influence has been observed
same,Toxicological influence,[5],No toxicological influence has been observed
COCCOCCOc1ccnc(C[S+]([O-])c2nc3cc(C(F)(F)F)ccc3[nH]2)c1C (stereo not drawn) [Compound 6],IC50,[1],550 nM
COc1ccc2[nH]c([S+]([O-])Cc3nccc(OCCO)c3C)nc2c1 (stereo not drawn) [Compound 17],IC50,[1],3500 nM
COc1ccc2[nH]c([S+]([O-])Cc3nccc(OCCN4C(=O)CCC4=O)c3C)nc2c1 (stereo not drawn) [Compound 14],IC50,[1],10000 nM
Cc1c(OCCOCc2ccccc2)ccnc1C[S+]([O-])c1nc2ccccc2[nH]1 (stereo not drawn) [Compound 1],IC50,[1],920 nM
Cc1c(OCCOCc2ccccn2)ccnc1C[S+]([O-])c1nc2ccccc2[nH]1 (stereo not drawn) [Compound 8],IC50,[1],1200 nM
COc1ccc2[nH]c([S+]([O-])Cc3nccc(OCCOCCOCc4ccccc4)c3C)nc2c1 (stereo not drawn) [Compound 11],IC50,[1],4200 nM
COc1ccc2[nH]c([S+]([O-])Cc3nccc(OCCOCc4ccccc4)c3C)nc2c1 (stereo not drawn) [Compound 2],IC50,[1],1400 nM
COc1ccc2[nH]c([S+]([O-])Cc3nccc(OCCN4CCCC4=O)c3C)nc2c1 (stereo not drawn) [Compound 9],IC50,[1],13000 nM
Cc1c(OCCOCCOCc2ccccc2)ccnc1C[S+]([O-])c1nc2cc(C(F)(F)F)ccc2[nH]1 (stereo not drawn) [Compound 13],IC50,[1],630 nM
CSCCOc1ccnc(C[S+]([O-])c2nc3ccccc3[nH]2)c1C (stereo not drawn) [Compound 20],IC50,[1],2300 nM
Cc1c(OCCOCCOCc2ccccc2)ccnc1C[S+]([O-])c1nc2ccccc2[nH]1 (stereo not drawn) [Compound 12],IC50,[1],2600 nM
"COc1ccc2[nH]c([S+]([O-])Cc3ncc(C)c(OC)c3C)nc2c1 (stereo not drawn) [Omeprazole, reference compound]",Time required for the acid secretion to recover,[2]; pentagastrin,72 h
same,"Gastric acid secretion, percent of the control response, 1 hr",[2]; pentagastrin,0.3%
same,"Gastric acid secretion, percent of the control response, 24 hr",[2]; pentagastrin,32.3%
same,"Gastric acid secretion, percent of the control response, 48 hr",[2]; pentagastrin,69.1%
same,"Gastric acid secretion, percent of the control response, 72 hr","[2]; 72 hr after 4 mg per kg intraduodenal, pentagastrin",108.4%
same,Inhibition of pentagastrin-stimulated gastric acid secretion (in words),[2],completely inhibited
same,% Inhibition of acid output,[3]; 62.5 μg/Kg intraduodenal,41.1%
same,% Inhibition of acid output,[3]; 125 μg/Kg intraduodenal,48.6%
same,% Inhibition of acid output,[3]; 250 μg/Kg intraduodenal,62.1%
same,% Inhibition of acid output,[3]; 500 μg/Kg intraduodenal,91.2%
same,% Inhibition of acid output,[3]; 1000 μg/Kg intraduodenal,100.0%
same,ED50,[3],0.112 mg/kg
Cc1c(OCCOc2ccccc2)ccnc1C[S+]([O-])c1nc2ccccc2[nH]1 (stereo not drawn) [Compound 21],IC50,[1],1300 nM
